Like-named read-outs stand apart in the source and are kept apart here.
Assay: Solubility of SAM compounds in water, visual observation after standing at 25° C. for one day
Assay type: physicochemical
Conditions: for water solubility (summary in words): conclusion from Table 1; for solubility at 1 day: water, 25 °C, thermodynamic from solid, 25° C., one day, visual observation, read-out: Solubility (solvent (H2O) allowed to stand at 25° C. for one day)
Protocol: The mixtures were allowed to stand at 25° C. for one day, followed by observation. […] The symbol “x” indicates a resultant in which precipitation and sedimentation were observed, the symbol “Δ” indicates a resultant in which opacity was observed, and the symbol “◯” indicates a resultant having an achromatic and transparent color. • 16-Hydroxy-1-hexadecanethiol (Frontier Scientific) • 11-Hydroxy-1-undecanethiol (Aldrich) • 8-Hydroxy-1-octanethiol (Aldrich) • 6-Hydroxy-1-hexanethiol (Aldrich) • 11-Amino-1-undecanethiol, hydrochloride (Dojindo Laboratories) • 8-Amino-1-octanethiol, hydrochloride (Dojindo Laboratories) • 6-Amino-1-hexanethiol, hydrochloride (Dojindo Laboratories)

Compound | water solubility (summary in words) | solubility at 1 day (SAM concentration 0.1 mM) [mM] | solubility at 1 day (SAM concentration 1 mM) [mM] | solubility at 1 day (SAM concentration 5 mM) [mM] | solubility at 1 day (SAM concentration 20 mM) [mM]
Cl.NCCCCCCS [6-Amino-1-hexanethiol, hydrochloride] | good water solubility | > 0.1 | > 1 | > 5 | > 20
OCCCCCCS [6-Hydroxy-1-hexanethiol] | good water solubility | > 0.1 | > 1 | > 5 | < 20
Cl.NCCCCCCCCS [8-Amino-1-octanethiol, hydrochloride] | good water solubility | > 0.1 | > 1 | > 5 | > 20
OCCCCCCCCS [8-Hydroxy-1-octanethiol] | good water solubility | > 0.1 | > 1 | < 5 | < 20
Cl.NCCCCCCCCCCCS [11-Amino-1-undecanethiol, hydrochloride] |  |  | < 1 | < 5 | < 20

Second part, the compound after the results:

water solubility (summary in words) | solubility at 1 day (SAM concentration 0.1 mM) [mM] | solubility at 1 day (SAM concentration 1 mM) [mM] | solubility at 1 day (SAM concentration 5 mM) [mM] | solubility at 1 day (SAM concentration 20 mM) [mM] | Compound
 | < 0.1 | < 1 | < 5 | < 20 | OCCCCCCCCCCCS [11-Hydroxy-1-undecanethiol]
 | < 0.1 | < 1 | < 5 | < 20 | OCCCCCCCCCCCCCCCCS [16-Hydroxy-1-hexadecanethiol]

From patent US7563623B2, “Biosensor” (FUJIFILM Corporation, priority 2006, dated 2009)
